Test results reported in patent EP0209430A2, “L-di or tripeptides possessing a biological activity for use in human and veterinary medicines, process for their obtention and medicines containing them” (INSTITUT DE RECHERCHES CHIMIQUES ET BIOLOGIQUES APPLIQUEES …, priority 1985, dated 1987).
In brackets after ≈: the same amount, converted by molar mass.

Assays:
Assay in all cases: MIC (C.M.I.) in agar medium
Type in all cases: cell-based
Salmonella E. = Salmonella E. CNCM 57.29, inoculum 10^4 à 10^5 bacteria per ml
Excerpt: (§1) Par exemple, nous décrivons les C.M.I. (concentrations minimales inhibitrices) en µg/ml, obtenues en milieu gélosé pour un inoculum de 10^4 à 10^5 bactéries par millilitre, du composé B 1067.

Klebsiella p. = Klebsiella p. La 433, inoculum 10^4 à 10^5 bacteria per ml
Excerpt: as §1

Serratia = Serratia 22.579, inoculum 10^4 à 10^5 bacteria per ml
Excerpt: as §1

S. faecalis = details: Enterococcus faecalis, ATCC14508, S. faecalis ATCC 14508, inoculum 10^4 à 10^5 bacteria per ml
Excerpt: as §1

E. Coli = tested on: E. Coli
Excerpt: as §1

S. aureus = details: Staphylococcus aureus
Excerpt: as §1

Question: What does the source list for `C[C@H](N)C(=O)N[C@@H](C)P(=O)(O)O` [B 1067, Selde l'amino-2-(hydroxyméthyl)-2-propanediol-1,3 avec l'acide L-Alanyl-L-(amino-1)-éthylphosphonique]?
Answer: MIC (Salmonella E.): 1 µg/mL (≈ 5.1 µM); MIC (Klebsiella p.): 16 µg/mL (≈ 81.6 µM); MIC (Serratia): 32 to 64 µg/mL (≈ 163 to 326 µM); MIC (S. faecalis): 32 µg/mL (≈ 163 µM); C.M.I. (E. Coli; E. Coli CNCM 53.126, inoculum 10^4 à 10^5 bacteria per ml): 0,25 µg/ml; MIC (E. Coli; Escherichia coli, E. Coli CNCM 54.8, inoculum 10^4 à 10^5 bacteria per ml): 0.25 µg/mL (≈ 1.27 µM); MIC (S. aureus; ATCC63, S. aureus ATCC 63.58 P, inoculum 10^4 à 10^5 bacteria per ml): 32 µg/mL (≈ 163 µM); MIC (S. aureus; ATCC29213, S. aureus ATCC 29213, inoculum 10^4 à 10^5 bacteria per ml): 8 µg/mL (≈ 40.8 µM); MIC (S. aureus; S. aureus CNCM 52.149, inoculum 10^4 à 10^5 bacteria per ml): 32 µg/mL (≈ 163 µM)
